From patent US20240116985A1, “STAPLED PEPTIDES AND METHODS THEREOF” (priority 2020, published 2024)
Like-named read-outs stand apart in the source and are kept apart here.

Tests used:
[1] = target: T1, full-length beta-Catenin (Uniprot ID P35222) (Homo sapiens, UniProt P35222); test: Fluorescence polarization IC50 (beta-catenin / 5FAM-TCF4 10-53 competition); assay type: binding; conditions: fluorescence polarization
T1 construct: 10 nM full-length beta-Catenin (Uniprot ID P35222)
T1 sequence (P35222 1-781): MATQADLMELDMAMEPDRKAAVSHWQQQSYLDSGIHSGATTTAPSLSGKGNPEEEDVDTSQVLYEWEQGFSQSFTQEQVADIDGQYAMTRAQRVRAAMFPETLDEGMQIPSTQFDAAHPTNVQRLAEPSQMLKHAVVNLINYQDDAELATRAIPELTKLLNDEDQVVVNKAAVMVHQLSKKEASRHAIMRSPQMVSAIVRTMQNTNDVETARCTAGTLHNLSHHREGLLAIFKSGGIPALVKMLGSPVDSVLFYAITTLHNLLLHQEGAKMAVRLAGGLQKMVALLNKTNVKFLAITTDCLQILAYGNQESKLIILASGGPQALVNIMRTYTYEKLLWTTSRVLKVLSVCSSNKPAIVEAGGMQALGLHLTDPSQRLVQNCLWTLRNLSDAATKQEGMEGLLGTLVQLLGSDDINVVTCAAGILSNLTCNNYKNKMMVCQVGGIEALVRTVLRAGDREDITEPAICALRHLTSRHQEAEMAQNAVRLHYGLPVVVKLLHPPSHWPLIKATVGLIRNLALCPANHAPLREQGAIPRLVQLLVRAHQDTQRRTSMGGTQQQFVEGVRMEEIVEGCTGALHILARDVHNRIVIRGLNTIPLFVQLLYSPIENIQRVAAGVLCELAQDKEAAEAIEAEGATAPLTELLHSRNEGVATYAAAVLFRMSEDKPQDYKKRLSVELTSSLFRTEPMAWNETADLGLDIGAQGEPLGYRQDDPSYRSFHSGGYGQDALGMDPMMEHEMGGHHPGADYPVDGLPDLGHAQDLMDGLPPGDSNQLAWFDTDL

[2] = target: T2, beta-catenin/TCF4 engagement (Homo sapiens, UniProt P35222); test: Nano-BRET target engagement assay (B-cat-Halo & TCF4-Luc in HEK293 cells); assay type: cell-based; conditions: absolute IC50
T2 construct: expressed in transfected cells; host or cells: HEK293
T2 sequence (P35222 1-781): T1 sequence (P35222 1-781)

IC50 ([1]; read-out: beta-Catenin FP IC50) [nM] | IC50 ([2]; read-out: NanoBRET Abs IC50) [µM] | SMILES | IC50 ([1]; beta-Catenin FP IC50 (nM)) [nM] | IC50 ([2]; NanoBRET Abs IC50 (uM)) [µM]
61 | 30 | CC(=O)N1CCC[C@]12CC=CCCCCC1(CCCCC=CCCCOC(=O)N3CC[C@@](C(=O)N[C@@H](Cc4ccccc4C(F)(F)F)C(=O)N[C@@H](Cc4csc5ccccc45)C(=O)N[C@@H](C)C(N)=O)(C3)NC(=O)[C@H](CC(C)C)NC(=O)[C@H](Cc3ccccc3)NC(=O)[C@H](C)NC(=O)[C@H](CCC(N)=O)NC(=O)[C@H](Cc3cccc(C(=O)O)c3)NC(=O)[C@H](CC(=O)O)NC1=O)NC(=O)[C@H](CC(C)(C)C)NC(=O)[C@H](CC(=O)O)NC2=O (stereo partly drawn) [I-2517, Ac-PL3-Asp-Npg-B6-Asp-3COOHF-Gln-Ala-Phe-Leu-PyrS2-2F3MeF-BztA-Ala-NH2] | – | –
212 | > 20 | CC(=O)N1CCC[C@]12CC=CCCCCC1(CCCCC=CCOC(=O)N3CC[C@@](C(=O)N[C@@H](Cc4ccccc4C(F)(F)F)C(=O)N[C@@H](Cc4csc5ccccc45)C(=O)N[C@@H](CCC(N)=O)C(N)=O)(C3)NC(=O)[C@H](CC(C)C)NC(=O)[C@H](Cc3ccccc3)NC(=O)[C@H](C)NC(=O)[C@H](C)NC(=O)[C@H](Cc3cccc(C(=O)O)c3)NC(=O)[C@H](CC(=O)O)NC1=O)NC(=O)[C@H](CC(C)(C)C)NC(=O)[C@H](CC(=O)O)NC2=O (stereo partly drawn) [I-2518, Ac-PL3-Asp-Npg-B6-Asp-3COOHF-Ala-Ala-Phe-Leu-PyrS-2F3MeF-BztA-Gln-NH2] | – | –
219 | > 20 | CC(=O)NCCCC[C@@H]1NC(=O)[C@H](CCC(N)=O)NC(=O)[C@H](CC(=O)O)NC(=O)C2(CCCC=CCCCOC(=O)N3CC[C@@](C(=O)N[C@@H](Cc4ccccc4)C(=O)N[C@@H](Cc4csc5ccccc45)C(=O)N[C@@H](CC(=O)N4CCOCC4)C(N)=O)(C3)NC(=O)[C@H](CC(C)C)NC(=O)[C@H](Cc3ccccc3)NC(=O)[C@H](C)NC1=O)CCCC=CC[C@]1(CCCN1C(C)=O)C(=O)N[C@@H](CC(N)=O)C(=O)N[C@@H](CC1CCCCC1)C(=O)N2 (stereo partly drawn) [I-2522, Ac-PL3-Asn-Cha-B5-Asp-Gln-[Ac]Lys-Ala-Phe-Leu-PyrS2-Phe-BztA-MorphAsn-NH2] | – | –
– | – | CC(=O)N1CCC[C@]12CC=CCCCC1(CCCC=CCCCOC(=O)N3CC[C@@](C(=O)N[C@@H](Cc4ccccc4)C(=O)N[C@@H](Cc4csc5ccccc45)C(=O)N[C@@H](CC(=O)N4CCOCC4)C(N)=O)(C3)NC(=O)[C@H](CC(C)C)NC(=O)[C@H](Cc3ccccc3)NC(=O)[C@H](C)NC(=O)[C@H](CCCCNC(=O)c3ccccc3)NC(=O)[C@H](CCC(N)=O)NC(=O)[C@H](CC(=O)O)NC1=O)NC(=O)[C@H](CC1CCCCC1)NC(=O)[C@H](CC(N)=O)NC2=O (stereo partly drawn) [I-2523, Ac-PL3-Asn-Cha-B5-Asp-Gln-[Phc]Lys-Ala-Phe-Leu-PyrS2-Phe-BztA-MorphAsn-NH2] | 1730 | > 20
224 | > 20 | COCCOCCOCCOCCC(=O)NCCCC[C@@H]1NC(=O)[C@H](CCC(N)=O)NC(=O)[C@H](CC(=O)O)NC(=O)C2(CCCC=CCCCOC(=O)N3CC[C@@](C(=O)N[C@@H](Cc4ccccc4)C(=O)N[C@@H](Cc4csc5ccccc45)C(=O)N[C@@H](CC(=O)N4CCOCC4)C(N)=O)(C3)NC(=O)[C@H](CC(C)C)NC(=O)[C@H](Cc3ccccc3)NC(=O)[C@H](C)NC1=O)CCCC=CC[C@]1(CCCN1C(C)=O)C(=O)N[C@@H](CC(N)=O)C(=O)N[C@@H](CC1CCCCC1)C(=O)N2 (stereo partly drawn) [I-2526, Ac-PL3-Asn-Cha-B5-Asp-Gln-[mPEG4]Lys-Ala-Phe-Leu-PyrS2-Phe-BztA-MorphAsn-NH2] | – | –
263 | > 20 | CC(=O)N1CCC[C@]12CC=CCCCC1(CCCC=CCCCOC(=O)N3CC[C@@](C(=O)N[C@@H](Cc4ccccc4)C(=O)N[C@@H](Cc4csc5ccccc45)C(=O)N[C@@H](CC(=O)N4CCOCC4)C(N)=O)(C3)NC(=O)[C@H](CC(C)C)NC(=O)[C@H](Cc3ccccc3)NC(=O)[C@H](C)NC(=O)[C@H](CCCCNC(=O)CN3CCOCC3)NC(=O)[C@H](CCC(N)=O)NC(=O)[C@H](CC(=O)O)NC1=O)NC(=O)[C@H](CC1CCCCC1)NC(=O)[C@H](CC(N)=O)NC2=O (stereo partly drawn) [I-2527, Ac-PL3-Asn-Cha-B5-Asp-Gln-[MorphAc]Lys-Ala-Phe-Leu-PyrS2-Phe-BztA-MorphAsn-NH2] | – | –
